Data: article PMC7332481, “Ecotoxicity screening evaluation of selected pharmaceuticals and their transformation products towards various organisms” (Environmental Science and Pollution Research International, 2020)
Converted amounts (≈) assume the structure as drawn.

Experiments:
Raphidocelis subcapitata = experiment: R. subcapitata reproduction (growth) inhibition test; assay type: cell-based; details: for inhibition at 100 µg/mL: read-out: Growth inhibition of R. subcapitata
Method: (§1) All tests were carried out in accordance with the OECD or ISO guidelines. In general the experimental part was divided into three main steps: (i) determination of the toxicity of the native forms of pharmaceuticals (their racemic mixtures), (ii) toxicity evaluation of the selected TPs of these pharmaceuticals, and (iii) preliminary toxicity assessment of the enantiomers of selected pharmaceuticals. For each assay, range-finding tests were conducted, in order to determine the range of concentrations for the definitive tests. The main tests were repeated three times in at least two parallel replicates, with a minimum of five concentrations for native forms of the selected pharmaceuticals (including their enantiomers). The exact number of replicates and concentrations tested was included in the description of each test. […] However, TPs were tested in a different manner; first, the tests were carried out at the limit concentration of 100 mg L^−1. […] Such approach was applied in order to observe the relative toxicity of the selected TP and its native form.
(§2) Dose-response curves were fitted using a linear logistic or logistic model (the model giving the best fit was chosen) (https://cran.r-project.org/web/packages/drfit/drfit.pdf). The mathematic formulas applied for this purpose are presented and described in the Supplementary Material. The EC50 values were given since log EC50 is a model parameter in the logistic as well as in linear logistic model.
Test organisms were provided from Algal Culture Collection (Universität Göttingen, Germany). […] The light-dark cycle was different from the OECD guidelines, and it was introduced to imitate natural growth conditions. In order to ensure that the algae are in the exponential growth phase when used to inoculate the test solutions, the stock culture was diluted three times a week. The test was carried out in 25 mL suspension cell culture flasks (Nunc) (working volume 10 mL). All operations were performed under sterile conditions. The initial cell concentration was 5 × 10^4 cells mL^−1. Eight different concentrations of every compound in three replicates and a minimum of six controls were used in each test. […] The test flasks were incubated on a shaker with a speed of approx. 75 rpm at the temperature and light conditions described above. Growth inhibition was calculated using the cell counts of the treated samples in relation to the untreated controls after 72 h of exposure. The cells were counted with the use of CASY TT Cell counter & analyzer.

Lemna minor = experiment: L. minor growth inhibition test; details: for EC50 L. minor (with confidence interval 2.5–97.5%): growth rate inhibition by frond area, 7 days; for inhibition at 15 µg/mL / inhibition at 50 µg/mL: read-out: Growth inhibition of L. minor
Method: as §1, §2
One week before the assay, the inoculum cultures were prepared; eight healthy plants were placed into a new portion of the medium. Two days before the test, the plants were transferred to a fresh medium, in order to supplement nutrients and to eliminate plant metabolites. The experiments were performed in six-well plates under the conditions described above. The pH value of the Steinberg medium and all solutions was 5.5 (± 0.5). Every test included six different concentrations of compound and six controls in three replicates. The test started with one plant consisting of three fronds and the measured endpoint was the inhibition of growth rate determined by comparing the frond area (mm^2) for the treated plants and untreated controls.

Daphnia magna = experiment: D. magna acute immobilization test; assay type: in vivo; details: for mortality at 50 µg/mL: concentration 50 mg L^−1
Method: as §1, §2
Five pre-fed test organisms were incubated with the studied compounds diluted in 10 mL of test media in glass test vessels at 20 °C (± 1 °C) in darkness for 48 h. Each test consisted of a control and five different concentrations of the studied compound in four parallel replicates. In order to achieve a full dose-response relationship, the concentration series covered the range of 0–100% immobilization. The number of immobilized or dead organisms was checked after 24 and 48 h. The negative effect of exposure to the tested compounds was expressed by the number of immobilized organisms compared to the controls.

Vibrio fischeri = experiment: microbe, parasite or virus in culture; assay type: cell-based; details: for inhibition at 10 µg/mL: concentration 10 mg L^−1
Method: (§3) Stock solutions and dilutions were prepared in 2% NaCl in 0.02 M phosphate buffer, pH 7. The freeze-dried bacteria were rehydrated prior to testing in a reactivation solution. Culture suspensions and diluted samples were pre-incubated at 15 °C for 15 min. After the initial luminescence was measured, 0.5 mL of the culture suspension was mixed with the same volume of a diluted sample. The final bioluminescence was measured after 30 min. Incubation was kept at 15 °C (LUMIStox 300 meter, Dr. Lange GmbH, Berlin, Germany). The relative toxicity of the samples was expressed as a percentage of luminescence inhibition compared to the controls.
as §3, with “m,” for “meter,”

Arthrobacter globiformis = experiment: A. globiformis dehydrogenase inhibition test (version without soil)
Method: as §1
The test strain was obtained from the German Collection of Microorganisms (DSMZ). A version of the test without soil was performed. Bacteria was grown in a sterile medium containing 10 g L^−1 peptone from casein, 5 g L^−1 yeast extract, 5 g L^−1 glucose, and 5 g L^−1 NaCl. For the test, the medium was diluted in a ratio of 1:3 in water. The inoculum was the bacteria in a log-growth phase. Cell density was adjusted to 1 × 10^8 cells mL^−1, which corresponds to an optical density (OD600nm) of 0.4. The test was performed in 24-well microplates. Each well contained 1 mL of solution of the tested compound in water and 1 mL of bacterial inoculum. Next, the plates were incubated for 2 h at 30 °C on a horizontal shaker with a speed of 100 rpm. To each well, a portion of 0.6 mL of the redox active dye resazurine (45 mg L^−1) dissolved in buffer was added. The microplates were further incubated for 1 h (30 °C, 100 rpm). To stop the reduction process, the plates were centrifuged at 3600g for 10 min. Aliquots (300 μl) of supernatant from each well were immediately transferred to the wells of a 96-well microplate in triplicates. Finally, the dehydrogenase activity was determined by measuring the formation of resorufin from resazurine using a fluorimeter ([…]). Dehydrogenase inhibition was calculated using Eq. 1.
where FBTS is the measured fluorescence of the blank (medium) with the tested substance, FTS is the measured fluorescence of the sample, FBNC is the measured fluorescence of the blank, and FNC is the measured fluorescence of the negative control (with bacteria).

[1] = growth inhibition by cell counts, 72 h
[2] = luminescence inhibition, 30 min, 15 °C
[3] = Raphidocelis subcapitata, concentration 100 mg L^−1
[4] = Aliivibrio fischeri, read-out: Luminescence inhibition

Compound | EC50 R. subcapitata (with confidence interval 2.5–97.5%) (Raphidocelis subcapitata; [1]) | EC50 L. minor (with confidence interval 2.5–97.5%) (Lemna minor) | EC50 D. magna (with confidence interval 2.5–97.5%) (Daphnia magna; immobilization, 48 h) | inhibition at 100 µg/mL (Raphidocelis subcapitata; [3]) | inhibition at 15 µg/mL (Lemna minor; Lemna minor) | inhibition at 10 µg/mL (Vibrio fischeri; [4]) | other results
CC(C)Cc1ccc([C@@H](C)C(=O)O)cc1 (single isomer, unassigned) [IBU Isomer R, R-ibuprofen] | 11.65 (10.21–13.26) mg L^−1 | 12.36 (10.80–14.07) mg L^−1 | 65.83 (59.54–72.54) mg L^−1 |  |  |  | 
COc1ccc2cc([C@@H](C)C(=O)O)ccc2c1 (single isomer, unassigned) [NAP Isomer R, R-naproxen] | 21.08 (19.64–22.59) mg L^−1 | 22.37 (20.76–24.04) mg L^−1 | 97.35 (91.90–104.95) mg L^−1 |  |  |  | EC50 V. fischeri (with confidence interval 2.5–97.5%) (Vibrio fischeri; [2]): 7.53 (7.11–7.99) mg L^−1
COc1ccc2cc([C@H](C)C(=O)O)ccc2c1 (single isomer, unassigned) [NAP Isomer S, S-naproxen] | 27.80 (25.67–30.05) mg L^−1 | 29.14 (27.19–31.40) mg L^−1 | 68.76 (54.64–90.98) mg L^−1 |  |  |  | EC50 V. fischeri (with confidence interval 2.5–97.5%) (Vibrio fischeri; [2]): 20.60 (19.50–21.75) mg L^−1
CC(C(=O)O)c1ccc(CC(C)(C)O)cc1 (stereo not drawn) [2-OH-IBU, 2-Hydroxyibuprofen] |  |  |  | 16% | 11% | 4% | mortality at 50 µg/mL (Daphnia magna; Daphnia magna): 0%
O=C(O)Cc1ccccc1Nc1c(Cl)cc(O)cc1Cl [4-OH-DIC, 4☒Hydroxydiclofenac] |  |  |  |  | 0% | 38% | inhibition at 50 µg/mL (Raphidocelis subcapitata; Raphidocelis subcapitata, concentration 50 mg L^−1): 45%; inhibition at 100 µg/mL (Arthrobacter globiformis; read-out: inhibition of bacterial growth (A. globiformis)): 14%; mortality at 60 µg/mL (Daphnia magna; Daphnia magna, concentration 60 mg L^−1): 8%
NC(=O)N1c2ccccc2CC(O)c2ccccc21 (stereo not drawn) [10-OH-CRB, 10,11-Dihydro-10-hydroxycarbamazepine] |  |  |  | 15% |  |  | inhibition at 50 µg/mL (Lemna minor; Lemna minor): 11%
CC(Cc1ccc(C(C)C(=O)O)cc1)C(=O)O (stereo not drawn) [CBX-IBU, Carboxyibuprofen] |  |  |  | 14% | 6% | 2% | mortality at 50 µg/mL (Daphnia magna; Daphnia magna): 8%
NC(=O)N1c2ccccc2C=Cc2ccccc21 [CRB, Carbamazepine] |  |  |  | 49% |  |  | EC50 (Raphidocelis subcapitata; Raphidocelis subcapitata, 72 h, growth inhibition by cell counts, 72 h, read-out: EC50 R. subcapitata (with confidence interval 2.5–97.5%)): > 100 µg/mL; Growth inhibition of R. subcapitata (Raphidocelis subcapitata; concentration 100 mg L^−1): 48%; EC50 (Lemna minor; Lemna minor, 168 h, read-out: EC50 L. minor (with confidence interval 2.5–97.5%), growth rate inhibition by frond area, 7 days): 50.2 µg/mL (≈ 212 µM); inhibition at 50 µg/mL (Lemna minor; Lemna minor): 49%; EC50 (Vibrio fischeri; Aliivibrio fischeri, 0.5 h, luminescence inhibition, 30 min, 15 °C, read-out: EC50 V. fischeri (with confidence interval 2.5–97.5%)): > 100 µg/mL; inhibition at 100 µg/mL (Vibrio fischeri; Aliivibrio fischeri, concentration 100 mg L^−1, read-out: Luminescence inhibition): 42%; EC50 (Arthrobacter globiformis; read-out: EC50 A. globiformis): > 100 µg/mL; mortality at 100 µg/mL (Daphnia magna; Daphnia magna, concentration 100 mg L^−1): 24%; EC50 (Daphnia magna; Daphnia magna, immobilization, 48 h, read-out: EC50 D. magna (with confidence interval 2.5–97.5%)): > 100 µg/mL
